Measurements: US20250195521A1 (Revolution Medicines, Inc., priority 2020, published 2025)

What was measured:
[1] = molecular target: KRAS G13D binding to BRAF RBD (Homo sapiens (Human), UniProt P01116+P62937, G13D); test: Ras-Raf disruption/FRET/MOA assay, KRAS G13D; type: biochemical
Text: (§1) Note—The following protocol describes a procedure for monitoring disruption of K-Ras G12C(GMP-PNP) binding to BRAF^RBD by a compound of the invention. This protocol may also be executed substituting other Ras proteins or nucleotides.
(§2) The purpose of this biochemical assay was to measure the ability of test compounds to facilitate ternary complex formation between a nucleotide-loaded K-Ras isoform and Cyclophilin A; the resulting ternary complex disrupts binding to a BRAF^RBD construct, inhibiting K-Ras signaling through a RAF effector. Data is reported as IC50 values.
(§3) Compound was present in plate wells as a 10-point 3-fold dilution series starting at a final concentration of 30 μM. After incubation at 25° C. for 3 hours, a mixture of Anti-His Eu—W1024 and anti-GST allophycocyanin was then added to assay sample wells at final concentrations of 10 nM and 50 nM, respectively, and the reaction incubated for an additional 1.5 hours. […] Compounds that facilitate disruption of a K-Ras: RAF complex were identified as those eliciting a decrease in the TR-FRET ratio relative to DMSO control wells.

[2] = molecular target: NRAS G12C binding to BRAF RBD (Homo sapiens (Human), UniProt P01111+P62937, G12C); test: Ras-Raf disruption/FRET/MOA assay, NRAS G12C; type: biochemical
Chain of NRAS G12C binding to BRAF RBD (P01111 whole entry G12C): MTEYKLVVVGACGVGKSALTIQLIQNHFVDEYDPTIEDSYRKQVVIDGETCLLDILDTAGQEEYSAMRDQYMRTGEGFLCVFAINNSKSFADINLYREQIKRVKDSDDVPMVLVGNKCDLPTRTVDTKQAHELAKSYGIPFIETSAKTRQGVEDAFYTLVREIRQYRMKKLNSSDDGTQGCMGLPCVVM
Chain of NRAS G12C binding to BRAF RBD (P62937 whole entry): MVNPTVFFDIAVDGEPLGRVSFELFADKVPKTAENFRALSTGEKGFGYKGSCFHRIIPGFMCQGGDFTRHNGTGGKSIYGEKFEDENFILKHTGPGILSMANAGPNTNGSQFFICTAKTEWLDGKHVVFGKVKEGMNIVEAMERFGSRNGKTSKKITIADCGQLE
Text: as §1, §2, §3

NCI-H358 (K-Ras G12C) = test: CellTiter-Glo cell viability assay, NCI-H358; type: cell-based, human; details: Homo sapiens, NCI-H358, 120 h, 5-day treatment; read-out: H358 Cell Viability assay data (K-Ras G12C, IC50)
In short: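 NCI-H358 (K-Ras G12C) cells treated with compound dispensed directly into plates. CellTiter-Glo luminescence read on day 5 after ~30 min equilibration to room temperature. Signal normalised to DMSO average ×100, then fitted with a four-parameter logistic model.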

[3] = molecular target: K-Ras G12C(GMP-PNP) binding to BRAF RBD (Homo sapiens (Human), UniProt P01116+P62937, G12C); test: Disruption of BRAF RBD interaction with K-Ras (FRET / MOA assay), K-Ras G12C; type: biochemical; details: read-out: KRAS G12C FRET IC50
Chain of K-Ras G12C(GMP-PNP) binding to BRAF RBD (P01116 other isoform, or with tags, fused parts or gaps G12C): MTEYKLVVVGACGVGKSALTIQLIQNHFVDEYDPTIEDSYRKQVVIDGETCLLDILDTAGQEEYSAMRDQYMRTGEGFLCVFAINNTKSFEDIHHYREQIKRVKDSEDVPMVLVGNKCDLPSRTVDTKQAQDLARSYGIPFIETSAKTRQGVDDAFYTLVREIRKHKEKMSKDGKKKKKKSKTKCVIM
Chain of K-Ras G12C(GMP-PNP) binding to BRAF RBD (P62937 whole entry): as the sequence (P62937 whole entry) above
In short: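 Compounds promote ternary complex of nucleotide-loaded Ras (here K-Ras G12C·GMP-PNP; other Ras mutants substituted) with cyclophilin A, disrupting BRAF RBD binding. 10-point 3-fold series from 30 μM final, 3 h at 25 °C, then anti-His Eu (10 nM) and anti-GST APC (50 nM) for 1.5 h. TR-FRET ratio decrease versus DMSO gave IC50.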

[4] = molecular target: KRAS WT binding to BRAF RBD (Homo sapiens (Human), UniProt P01116+P62937); test: Ras-Raf disruption/FRET/MOA assay, KRAS WT; type: biochemical
Chain of KRAS WT binding to BRAF RBD (P01116 other isoform, or with tags, fused parts or gaps): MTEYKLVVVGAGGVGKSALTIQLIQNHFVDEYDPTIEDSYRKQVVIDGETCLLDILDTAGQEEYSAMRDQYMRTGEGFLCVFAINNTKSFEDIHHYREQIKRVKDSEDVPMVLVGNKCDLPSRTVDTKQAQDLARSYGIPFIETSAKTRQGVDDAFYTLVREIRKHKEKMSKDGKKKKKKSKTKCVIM
Chain of KRAS WT binding to BRAF RBD (P62937 whole entry, the tested form may be a part): as the sequence (P62937 whole entry) above
Text: Disruption of B-Raf Ras-binding Domain (BRAF^RBD) Interaction with K-Ras by Compounds of the Invention (also called a FRET assay or an MOA assay)
as §1, §2
as §3, with “In assay buffer containing 25 mM HEPES pH 7.3, 0.002% Tween20, 0.1% BSA, 100 mM NaCl and 5 mM MgCl2, tagless Cyclophilin A, His6-K-Ras-GMPPNP, and GST-BRAF^RBD were combined in a 384-well assay plate at final concentrations of 25 μM, 12.5 nM and 50 nM, respectively. Compound was” for “Compound was”

[5] = system: K-Ras G12C (NCI-H358 cells); test: Potency assay: pERK in NCI-H358 cells; type: cell-based, human; details: Homo sapiens; NCI-H358 cells, 4 hours; read-out: pERK EC50 (H358 KRAS G12C)
In short: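 Cells plated the day before were exposed for 4 h at 37° C, 5% CO2 to a 10-point, 3-fold DMSO dilution series (10 mM top stock), in duplicate. Phospho-ERK was read by AlphaLISA SureFire Ultra or by In-Cell Western with DRAQ5 DNA stain, and IC50 came from a 4-parameter sigmoidal fit.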

[6] = molecular target: KRAS G12S binding to BRAF RBD (Homo sapiens (Human), UniProt P01116+P62937, G12S); test: Ras-Raf disruption/FRET/MOA assay, KRAS G12S; type: biochemical
Chain of KRAS G12S binding to BRAF RBD (P01116 other isoform, or with tags, fused parts or gaps G12S): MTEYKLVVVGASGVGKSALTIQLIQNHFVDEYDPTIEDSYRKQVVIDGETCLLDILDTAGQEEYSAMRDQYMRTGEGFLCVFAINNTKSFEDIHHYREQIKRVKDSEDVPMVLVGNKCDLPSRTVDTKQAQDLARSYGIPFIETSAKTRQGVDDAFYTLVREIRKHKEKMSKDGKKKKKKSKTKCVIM
Chain of KRAS G12S binding to BRAF RBD (P62937 whole entry): as the sequence (P62937 whole entry) above
Text: as §1, §2, §3

Chain of KRAS G13D binding to BRAF RBD (P01116 other isoform, or with tags, fused parts or gaps G13D): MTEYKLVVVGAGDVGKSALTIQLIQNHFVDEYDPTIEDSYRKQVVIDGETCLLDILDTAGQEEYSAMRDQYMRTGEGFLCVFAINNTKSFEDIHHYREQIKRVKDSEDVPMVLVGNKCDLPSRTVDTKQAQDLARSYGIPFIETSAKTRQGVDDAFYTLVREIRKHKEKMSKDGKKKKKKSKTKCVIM
Chain of KRAS G13D binding to BRAF RBD (P62937 whole entry): as the sequence (P62937 whole entry) above

SMILES	IC50 [1] [nM]	IC50 [2] [nM]	IC50 (NCI-H358 (K-Ras G12C)) [nM]	IC50 [3] [nM]	IC50 [4] [nM]	EC50 [5] [nM]	IC50 [6] [nM]
CCn1c(-c2cccnc2[C@H](C)OC)c2c3cc(ccc31)-c1csc(n1)C[C@H](NC(=O)[C@H](C(C)C)N1CC[C@]3(CCN(C(=O)C#CC(C)(C)N(C)C)C3)C1=O)C(=O)N1CCC[C@H](N1)C(=O)OCC(C)(C)C2 (single isomer, unassigned) [Compound A425]	> 10000	10 to 100	–	–	–	–	–
CC#CC(=O)N1CC[C@]2(CCN([C@H](C(=O)N[C@H]3Cc4cccc(c4)-c4ccc5c(c4)c(c(-c4cccnc4[C@H](C)OC)n5CC)CC(C)(C)COC(=O)[C@@H]4CCCN(N4)C3=O)C(C)C)C2=O)C1 (single isomer, unassigned) [Compound A426]	> 10000	1000 to 10000	–	–	–	–	–
CC#CC(=O)N1CC[C@H](C(=O)N(C)[C@H](C(=O)N[C@H]2Cc3cc(O)cc(c3)-c3ccc4c(c3)c(c(-c3cncnc3)n4CC)CC(C)(C)COC(=O)[C@@H]3CCCN(N3)C2=O)C(C)C)C1 [Compound A169]	> 10000	100 to 1000	100 to 1000	100 to 1000	–	–	–
CCn1c(-c2cccnc2[C@H](C)OC)c2c3cc(ccc31)-c1csc(n1)C[C@H](NC(=O)[C@H](C(C)C)N(C)C(=O)N1CC(C#N)C1)C(=O)N1CCC[C@H](N1)C(=O)OCC(C)(C)C2 [Compound A382]	–	–	< 10	–	10 to 100	–	10 to 100
CCn1c(-c2cccnc2[C@H](C)OC)c2c3cc(ccc31)-c1cc(cc(C(F)F)c1)C[C@H](NC(=O)[C@@H](COC1CN(C(=O)C#CC(C)(C)N(C)C)C1)C(C)C)C(=O)N1CCC[C@H](N1)C(=O)OCC(C)(C)C2 [Compound A404]	> 10000	100 to 1000	–	–	–	–	–
C=CC(=O)N1CC[C@H](C(=O)N(C)[C@H](C(=O)N[C@H]2Cc3csc(n3)-c3ccc4c(c3)c(c(-c3cc(N5CCN(C)CC5)cnc3[C@H](C)OC)n4CC(C)(F)F)CC(C)(C)COC(=O)[C@@H]3CCCN(N3)C2=O)C(C)C)C1 [Compound A410]	100 to 1000	10 to 100	< 10	10 to 100	–	< 5000	–
CCn1c(-c2cccnc2[C@H](C)OC)c2c3cc(ccc31)-c1cccc(c1)C[C@H](NC(=O)[C@H](C(C)C)N1CC[C@]3(CCN(C(=O)C#CC(C)(C)N(C)C)C3)C1=O)C(=O)N1CCC[C@H](N1)C(=O)OCC(C)(C)C2 [Compound A414]	> 10000	–	–	–	–	–	–
CCn1c(-c2cccnc2[C@H](C)OC)c2c3cc(ccc31)-c1cc(C(F)F)cc(n1)C[C@H](NC(=O)[C@H](C1CCCC1)N(C)C(=O)[C@H]1CCN(C(=O)C#CC(C)(C)N3CCC3)C1)C(=O)N1CCC[C@H](N1)C(=O)OCC(C)(C)C2 [Compound A456]	1000 to 10000	10 to 100	< 10	10 to 100	–	–	–
CC#CC(=O)N1CC[C@]2(CCC([C@H](C(=O)N[C@H]3Cc4nc(cs4)-c4ccc5c(c4)c(c(-c4cccnc4[C@H](C)OC)n5CC)CC(C)(C)COC(=O)[C@@H]4CCCN(N4)C3=O)C(C)C)C2=O)C1 (stereo partly drawn) [Compound A511]	1000 to 10000	100 to 1000	< 10	100 to 1000	–	–	–
CCn1c(-c2cccnc2[C@H](C)OC)c2c3cc(ccc31)-c1cccc(c1)C[C@H](NC(=O)[C@H](C(C)C)N(C)C(=O)[C@H]1CCN(C(=O)C#C[C@@H]3CC(F)(F)CN3C)C1)C(=O)N1CCC[C@H](N1)C(=O)OCC(C)(C)C2 [Compound A526]	> 10000	10 to 100	< 10	10 to 100	–	–	–

Results, then the molecule that gave them:

IC50 [1] [nM]	IC50 [2] [nM]	IC50 (NCI-H358 (K-Ras G12C)) [nM]	IC50 [3] [nM]	IC50 [4] [nM]	EC50 [5] [nM]	IC50 [6] [nM]	SMILES
> 10000	1000 to 10000	100 to 1000	–	–	–	–	C=CC(=O)N1CC[C@H](C(=O)N(C)[C@H](C(=O)N[C@H]2Cc3cc(O)cc(c3)-c3ccc4c(c3)c(c(-c3cccc(CN(C)C)c3)n4CC)CC(C)(C)COC(=O)[C@@H]3CCCN(N3)C2=O)C(C)C)C1 [Compound A106]
> 10000	> 10000	–	> 10000	–	–	–	C=CC(=O)N1CC[C@H](C(=O)N(C)[C@H](C(=O)N[C@H]2Cc3cccc(c3)-c3ccc4c(c3)c(c(-c3cccnc3[C@H](C)OC)n4CC)CC(C)(C)COC(=O)[C@@H]3CCCN(N3)C2=O)C(C)C)C1 [Compound A114]
> 10000	100 to 1000	> 10000	–	–	–	–	C=CC(=O)N1CC[C@H](C(=O)N(C)[C@H](C(=O)N[C@H]2Cc3cc(O)cc(c3)-c3ccc4c(c3)c(c(-c3cccnc3COC)n4CC)CC(C)(C)COC(=O)[C@@H]3CCCN(N3)C2=O)C(C)C)C1 [Compound A137]
1000 to 10000	100 to 1000	–	–	–	–	–	CCn1c(-c2cccnc2COC)c2c3cc(ccc31)-c1cc(C)cc(c1)C[C@H](NC(=O)[C@@H](C(C)C)N(C)C(=O)[C@H]1CCN(C(=O)C#CCN(C)C)C1)C(=O)N1CCC[C@H](N1)C(=O)OCC(C)(C)C2 [Compound A156]
1000 to 10000	100 to 1000	–	–	–	–	–	CCn1c(-c2cccnc2COC)c2c3cc(ccc31)-c1cc(O)cc(c1)C[C@H](NC(=O)[C@H](C(C)C)N(C)C(=O)[C@H]1CCN(C(=O)/C=C\CN(C)C)C1)C(=O)N1CCC[C@H](N1)C(=O)OCC(C)(C)C2 [Compound A161]
100 to 1000	100 to 1000	10 to 100	10 to 100	10 to 100	< 5000	–	C/C=C/S(=O)(=O)N1CC[C@H](C(=O)N(C)[C@H](C(=O)N[C@H]2Cc3cc(O)cc(c3)-c3ccc4c(c3)c(c(-c3ccncc3[C@H](C)OC)n4CC)CC(C)(C)COC(=O)[C@@H]3CCCN(N3)C2=O)C(C)C)C1 [Compound A280]
> 10000	> 10000	> 10000	> 10000	–	–	–	C=CC(=O)N1CC[C@H](C(=O)N(C)[C@H](C(=O)NC2C[C@@H]3CN(CCO3)c3ccc4c(c3)c(c(-c3cccnc3COC)n4CC)CC(C)(C)COC(=O)[C@@H]3CCCN(N3)C2=O)C(C)C)C1 (stereo partly drawn) [Compound A318]
> 10000	100 to 1000	–	–	–	–	–	CCn1c(-c2cccnc2[C@H](C)OC)c2c3cc(ccc31)-c1cccc(c1)C[C@H](NC(=O)[C@H](C(C)C)N(C)C(=O)[C@H]1CCN(C(=O)C#CC3CCO3)C1)C(=O)N1CC(Br)C[C@H](N1)C(=O)OCC(C)(C)C2 (stereo partly drawn) [Compound A508]
–	–	< 10	–	–	< 5000	10 to 100	CCn1c(-c2cc(C3CCN(C)CC3)cnc2[C@H](C)OC)c2c3cc(ccc31)-c1cc(O)cc(c1)C[C@H](NC(=O)[C@H](C(C)C)N(C)C(=O)[C@@H]1OCC[C@@H]1c1ccccc1)C(=O)N1CCC[C@H](N1)C(=O)OCC(C)(C)C2 [Compound A577]
–	–	< 10	10 to 100	10 to 100	< 5000	–	CCn1c(-c2cc(N3CCN(C)CC3)cnc2[C@H](C)OC)c2c3cc(ccc31)-c1cc(O)cc(c1)C[C@H](NC(=O)[C@H](C(C)C)N(C)C(=O)[C@@H]1OCC[C@@H]1c1ccccc1)C(=O)N1CCC[C@H](N1)C(=O)OCC(C)(C)C2 [Compound A594]
